From patent US20060281791A1, “Methods of increasing proliferation of adult mammalian cardiomyocytes through p38 map kinase inhibition” (CHILDREN'S MEDICAL CENTER CORPORATION, priority 2005, published 2006)
Where “and” joins values, the source holds several entries; their conditions need not be identical. Equal entries are not always repeated.

System: neonatal rat cardiomyocytes
Assay: cDNA microarray analysis (Affymetrix Rat Expression Set 230), x-fold changes of clustered genes
Type: cell-based
Details: 72 h, experiments (1) and (2)
Procedure: Animal experiments were performed in accordance with guidelines of Children's Hospital, Boston and UCLA. Ventricular cardiomyocytes from fetal (E19), 2-day-old (P2) and adult (250-350 g) Wistar rats (Charles River) were isolated as described with minor modifications (Engel et al. 1999; Engel et al. 2003). After digestion of fetal or neonatal hearts (0.14 mg/ml collagenase II (Invitrogen), 0.55 mg/ml pancreatin (Sigma)) cells were cultured in DMEM/F12 (GIBCO) containing 3 mM Na-pyruvate, 0.2% BSA, 0.1 mM ascorbic acid (Sigma), 0.5% Insulin-Transferrin-Selenium (100×), penicillin (100 U/ml), streptomycin (100 μg/ml), and 2 mM L-glutamine (GIBCO). Adult cardiomyocytes were cultured for 1 day in standard medium (DMEM, 25 mM Hepes, 5 mM taurine, 5 mM creatine, 2 mM L-carnitine (Sigma), 20 U/ml insulin (GIBCO), 0.2% BSA, penicillin (100 U/ml), and streptomycin (100 μg/ml)). Cells were stimulated in culture medium without BSA containing 2 mM L-glutamine. Neonatal and adult cardiomyocytes were initially cultured for 48 h in the presence of 20 μM cytosine β-D-arabinofuranoside (araC, Sigma) and 5% horse serum before stimulation to prevent proliferation of non-myocytes. Adult cardiomyocytes were incubated another 3 days with araC during stimulation. Neonatal cardiomyocytes were stimulated every day with growth factors for BrdU and H3P analyses (FGF1 and NRG-1-1β at 50 ng/ml, IL-1β at 100 ng/ml, R&D Systems, all diluted in 0.1% BSA/PBS). SB203580 and LY294002 (Calbiochem) was added every day. Adult cardiomyocytes were stimulated with fresh medium and SB203580 every 3 days.
RNA of neonatal cardiomyocytes was prepared 72 h after stimulation using Trizol (Invitrogen). RT-PCR was performed following standard protocols (Supplemental Table S4). Affymetrix technology was applied using the Rat Expression Set 230.
To determine the effect of p38 inhibition on cardiomyocyte differentiation and proliferation, a specific inhibitor of p38α and p38β, SB203580, was used and evaluated using cDNA microarray analyses using neonatal rat cardiomyocytes. […] Expression changes of a subset of genes were validated by RT-PCR.
Stimulation of neonatal cardiomyocytes with FGF1 induces fetal gene expression. To determine if FGF1, in combination with p38 inhibition, can reverse differentiation and induce cell cycle re-entry, we repeated cDNA microarray analyses (Supplemental Table S1). […]

Protein tyrosine phosphatase, receptor type, D (Ptprd) expression, x-fold change: 0.5 x-fold
Serine-threonine specific protein phosphatase, GL subunit expression, x-fold change: 0.7 x-fold
Adrenergic, alpha 1B-, receptor expression, x-fold change (listed as FGF): 0.8 x-fold and 0.7 x-fold
Cacalmodulin-dependent protein kinase phosphatase expression, x-fold change (listed as FGF): 0.9 x-fold and 1.3 x-fold
Casein kinase I delta expression, x-fold change (listed as FGF): 1.3 x-fold and 0.9 x-fold
Growth hormone receptor expression, x-fold change (listed as FGF): 0.7 x-fold and 0.8 x-fold
Substance: FGF1: growth factor FGF1 (R&D Systems)
Actn1 expression, x-fold change: 1.9 x-fold
CXC chemokine LIX expression, x-fold change: 0.4 x-fold
Cdc42 effector protein expression, x-fold change: 0.8 x-fold
Cfl1 expression, x-fold change: 0.6 x-fold
Connexin 40 expression, x-fold change: 0.8 x-fold
Edg2 expression, x-fold change: 0.4 x-fold
Enigma expression, x-fold change: 2.3 x-fold
Epha3 expression, x-fold change: 0.5 x-fold
Epidermal growth factor-like protein, T16 precursor expression, x-fold change: 0.3 x-fold
Fgf16 expression, x-fold change: 0.8 x-fold
Figf expression, x-fold change: 0.3 x-fold
Kruppel-like factor 4 expression, x-fold change: 1.1 x-fold
Lgals5 expression, x-fold change: 2.9 x-fold
Maf-2 expression, x-fold change: 0.5 x-fold
Mtss1 expression, x-fold change: 0.5 x-fold
Nr2f2/COUP-TFII expression, x-fold change: 0.8 x-fold
Nudt4 expression, x-fold change: 0.8 x-fold
Osteoglycin expression, x-fold change: 0.4 x-fold
Osterix expression, x-fold change: 0.6 x-fold
PTTG1 expression, x-fold change: 1.4 x-fold
RPTPK expression, x-fold change: 0.4 x-fold
Rbp2 expression, x-fold change: 0.6 x-fold
Rdc1 expression, x-fold change: 0.5 x-fold
Rev-ErbA-beta expression, x-fold change: 0.7 x-fold
RhoGAP expression, x-fold change: 0.8 x-fold
Septin 6 expression, x-fold change: 1.9 x-fold
Seta expression, x-fold change: 1.0 x-fold
TRAF4 associated factor 1 expression, x-fold change: 1.9 x-fold
Troponin I, slow isoform expression, x-fold change: 0.6 x-fold
Vcam1 expression, x-fold change: 0.3 x-fold
Wisp2 expression, x-fold change: 0.8 x-fold
(BEM)-3 expression, x-fold change (listed as FGF): 1.4 x-fold and 1.6 x-fold
AGTR1 expression, x-fold change (listed as FGF): 0.4 x-fold and 0.5 x-fold
Acta1 expression, x-fold change (listed as FGF): 4.8 x-fold and 6.3 x-fold
Actinin expression, x-fold change (listed as FGF): 1.8 x-fold and 1.5 x-fold
Adrenomedullin precursor expression, x-fold change (listed as FGF): 0.4 x-fold and 0.6 x-fold
Agtr1a expression, x-fold change (listed as FGF): 0.6 x-fold and 0.4 x-fold
Anillin expression, x-fold change (listed as FGF): 3.3 x-fold and 1.9 x-fold
Ankyrin 2, neuronal expression, x-fold change (listed as FGF): 0.6 x-fold and 0.7 x-fold
Ankyrin repeat domain-containing SOCS box protein 12 expression, x-fold change (listed as FGF): 0.5 x-fold and 0.6 x-fold
Apoptosis protein MA-3 expression, x-fold change (listed as FGF): 0.8 x-fold and 0.7 x-fold
Arrestin domain containing 3 expression, x-fold change (listed as FGF): 0.3 x-fold and 0.5 x-fold
Aurora B expression, x-fold change (listed as FGF): 1.5 x-fold and 1.9 x-fold
BMP2 expression, x-fold change (listed as FGF): 6.0 x-fold and 3.4 x-fold
BMP6 precursor expression, x-fold change (listed as FGF): 1.4 x-fold and 1.7 x-fold
BOC expression, x-fold change (listed as FGF): 0.5 x-fold and 0.6 x-fold
Bcl2a1 expression, x-fold change (listed as FGF): 0.4 x-fold and 0.6 x-fold
Bmp3 expression, x-fold change (listed as FGF): 0.5 x-fold and 0.6 x-fold
Bub1 expression, x-fold change (listed as FGF): 1.4 x-fold and 1.2 x-fold
CABC1 expression, x-fold change (listed as FGF): 0.6 x-fold and 0.5 x-fold
CDKN3/KAP/CDI1 expression, x-fold change (listed as FGF): 1.7 x-fold and 2.0 x-fold
CENP-E expression, x-fold change (listed as FGF): 1.3 x-fold and 1.7 x-fold
CISH expression, x-fold change (listed as FGF): 0.4 x-fold and 0.5 x-fold
CKS2 expression, x-fold change (listed as FGF): 1.7 x-fold and 1.4 x-fold
CREB5 expression, x-fold change (listed as FGF): 1.3 x-fold and 1.8 x-fold
CSRP1 expression, x-fold change (listed as FGF): 1.9 x-fold and 1.8 x-fold
CXCL4 expression, x-fold change (listed as FGF): 0.7 x-fold and 0.6 x-fold
Cadherin 13 expression, x-fold change (listed as FGF): 1.5 x-fold and 1.9 x-fold
Calponin 1 expression, x-fold change (listed as FGF): 6.4 x-fold and 4.9 x-fold
Catenin, alpha-1 expression, x-fold change (listed as FGF): 1.6 x-fold and 1.5 x-fold
Cdc2a expression, x-fold change (listed as FGF): 1.7 x-fold and 1.8 x-fold
Cdc20 expression, x-fold change (listed as FGF): 1.9 x-fold and 1.7 x-fold
Cdc25B expression, x-fold change (listed as FGF): 1.6 x-fold and 1.3 x-fold
Cdca3 expression, x-fold change (listed as FGF): 1.3 x-fold and 1.4 x-fold
Cish2 expression, x-fold change (listed as FGF): 0.6 x-fold and 0.8 x-fold
Cish3 expression, x-fold change (listed as FGF): 0.8 x-fold and 0.9 x-fold
Cish expression, x-fold change (listed as FGF): 0.4 x-fold and 0.5 x-fold
Connexin 43 expression, x-fold change (listed as FGF): 0.9 x-fold and 0.8 x-fold
Csrp3/MLP expression, x-fold change (listed as FGF): 2.7 x-fold and 4.2 x-fold
Ctgf expression, x-fold change (listed as FGF): 1.9 x-fold and 1.6 x-fold
Cxcl12 expression, x-fold change (listed as FGF): 0.5 x-fold and 0.3 x-fold
Cyclin A2 expression, x-fold change (listed as FGF): 1.8 x-fold and 1.1 x-fold
Cyclin B1 expression, x-fold change (listed as FGF): 1.2 x-fold and 1.0 x-fold
Cyclin B expression, x-fold change (listed as FGF): 1.9 x-fold and 1.8 x-fold
Cyclin D1 expression, x-fold change (listed as FGF): 4.2 x-fold and 3.3 x-fold
DAPK1 expression, x-fold change (listed as FGF): 0.6 x-fold and 0.5 x-fold
DUSP6 expression, x-fold change (listed as FGF): 2.8 x-fold and 4.4 x-fold
Ddr2 expression, x-fold change (listed as FGF): 0.5 x-fold and 0.8 x-fold
Desmin expression, x-fold change (listed as FGF): 2.2 x-fold and 1.8 x-fold
Diaphanous homolog 3 expression, x-fold change (listed as FGF): 2.5 x-fold and 1.9 x-fold
Dok-5 expression, x-fold change (listed as FGF): 2.7 x-fold and 2.6 x-fold
Dri42 expression, x-fold change (listed as FGF): 0.5 x-fold and 0.3 x-fold
ETV5/ERM/PEA3 expression, x-fold change (listed as FGF): 20.4 x-fold and 11.2 x-fold
Ect2 expression, x-fold change (listed as FGF): 1.9 x-fold and 2.5 x-fold
Egfl3 expression, x-fold change (listed as FGF): 0.4 x-fold and 0.5 x-fold
Emr1 expression, x-fold change (listed as FGF): 0.6 x-fold and 0.4 x-fold
EphA2 expression, x-fold change (listed as FGF): 2.2 x-fold and 1.7 x-fold
Ephrin B3 expression, x-fold change (listed as FGF): 0.7 x-fold and 0.8 x-fold
FCEG expression, x-fold change (listed as FGF): 0.7 x-fold and 0.5 x-fold
FHL1 expression, x-fold change (listed as FGF): 7.3 x-fold and 5.1 x-fold
FHOS2 expression, x-fold change (listed as FGF): 0.7 x-fold and 0.8 x-fold
Fancd2 expression, x-fold change (listed as FGF): 0.7 x-fold and 1.1 x-fold
Fbln5 expression, x-fold change (listed as FGF): 0.4 x-fold and 0.6 x-fold
Fcgr2 expression, x-fold change (listed as FGF): 0.5 x-fold and 0.6 x-fold
Fcgr3 expression, x-fold change (listed as FGF): 0.5 x-fold and 0.6 x-fold
Flt4/VEGFR3 expression, x-fold change (listed as FGF): 1.8 x-fold and 2.5 x-fold
Frizzled-related protein 2 expression, x-fold change (listed as FGF): 0.5 x-fold and 0.3 x-fold
Fzd1 expression, x-fold change (listed as FGF): 0.7 x-fold and 0.8 x-fold
G0S2-like protein expression, x-fold change (listed as FGF): 0.5 x-fold and 0.6 x-fold
GADD45a expression, x-fold change (listed as FGF): 1.8 x-fold and 1.3 x-fold
GADD45 gamma expression, x-fold change (listed as FGF): 3.0 x-fold and 2.9 x-fold
GDF15 expression, x-fold change (listed as FGF): 1.6 x-fold and 2.6 x-fold
GOA1B expression, x-fold change (listed as FGF): 2.9 x-fold and 3.0 x-fold
Gab1 expression, x-fold change (listed as FGF): 0.6 x-fold and 0.7 x-fold
Ghr expression, x-fold change (listed as FGF): 0.9 x-fold and 0.8 x-fold
Glypican (GPC)-3 expression, x-fold change (listed as FGF): 0.4 x-fold and 0.5 x-fold
